Test results from PMC11199504, “New hemisynthetic derivatives of sphaeropsidin phytotoxins triggering severe endoplasmic reticulum swelling in cancer cells” (Scientific Reports, 2024).

Tests used:
B16F10 = assay: MTT colorimetric assay, B16F10; assay type: cell-based; details: Mus musculus, B16-F10; 72 h treatment; mean ± SEM; sensitive to apoptosis; read-out: IC50 determined by MTT assays, B16F10
Description: (§1) Cancer cell lines were obtained from either the European Collection of Cell Cultures (ECACC; Salisbury, UK) or the American Type Culture Collection (ATCC; Manassas, VA). The two glioma cell lines were the U373 (ECACC code 08061901) and Hs683 (ATCC HTB-138) cell lines. The carcinoma cell lines were the A549 non-small cell carcinoma cell line (ATCC code CCL 185) and the MCF-7 mammary breast carcinoma cell line (ATCC code HTB-22). The melanoma cell lines were the mouse B16F10 cells (ATCC code CRL-6475) and the human SKMEL-28 cells (ATCC code HTB-72). The ovarian cancer cell line A2780 and its cisplatin-resistant subline A2780cis were obtained from Sigma-Aldrich (St. Louis, MO, USA). Colon cancer HCT116 cells were obtained from ATCC (CCL-247) and the oxaliplatin-resistant subline HCT116/OxR established in the W. Berger lab[59]. The HeLa cell derivative KB-3-1 and the colchicine-selected, highly ABCB1-overexpressing subline KB-C-1 were generously donated by Dr. D. W. Shen, Bethesda, MD. RKOp53wt colon cancer cells together with the RKOp53KO (homozygous knock-out) subline[60] were generously provided by Dr. Vogelstein from John Hopkins University, Baltimore. The correct origin of all cell models was confirmed by STR during performance of the experiments. All cell lines were cultured in RPMI1640 culture medium supplemented with 10% heat-inactivated fetal bovine serum, 2% L-glutamine (0.6 mg/mL), 2% penicillin/streptomycin (200 IU/mL and 200 μg/mL) and 0.1 mg/mL gentamicin.
(§2) The MTT (3-(4,5-dimethylthiazol-2-yl)-2,5-diphenyl tetrazolium bromide) colorimetric assay has been conducted as described previously. Briefly, cells were seeded 24 h before their treatment with each compound for a period of 72 h. The concentrations tested ranged from 10 nM to 100 µM. Each assay was conducted in sextuplicates. The number of independent experiments is mentioned in the legend of the tables.

SKMEL-28 = assay: MTT colorimetric assay, SKMEL-28; assay type: cell-based; details: Homo sapiens, SK-MEL-28; 72 h treatment; mean ± SEM; resistant to apoptosis; read-out: IC50 determined by MTT assays, SKMEL-28
Description: as §1, §2

MCF7 = assay: MTT colorimetric assay, MCF7; assay type: cell-based; details: Homo sapiens, 72 h treatment, mean ± SEM, sensitive to apoptosis, read-out: IC50 determined by MTT assays, MCF7
Description: as §1, §2

[1] = system: SK-MEL-28 human melanoma and U373 glioblastoma cells; assay: ER swelling / vacuole origin (CellLight ER-GFP, brightfield, TEM); assay type: cell-based; details: SK-MEL-28 and U373 cells
Description: To decipher the origin of vacuoles, fluorescent probes staining different cellular compartments were used: the lysosomal Red DND-99 LysoTracker®, the glibenclamide Red ER tracker®, the green FM MitoTracker® that were all purchased from Lifes Technologies (Invitrogen, Belgium) and used according to manufacturer’s instructions. The CellLight ER-GFP (Thermofisher, Belgium) staining of the ER is based on the transfection of a plasmid coding for a fusion protein made of GFP fused to the ER signal sequence of calreticulin and the KDEL ER retention signal. Briefly, 6 × 10^4 cells were seeded on glass coverslips in 6 well plates. After a minimum of 24 h, cells were treated or not with the compounds of interest. Note that concentration and duration of the treatment were determined separately for each compound prior to the experiment on the basis of the apparition of marked morphological changes in phase contrast microscopy. Sixteen hours before the end of the experiment, 4 µL/well of the reagent were added to allow transfection and expression of the GFP-fused protein by the cells. Coverslips were then washed twice in PBS and mounted on slides without fixation step to take captions with the Axio.Imager.M2 microscope (Carl Zeiss, Belgium). To evaluate the cellular distribution of 13, the Axio.Imager.M2 was specifically equipped with an M340L4 excitation source (Thorlabs) and the pseudoconfocal Zeiss ZEN deconvolution system kindly provided for demo by Carl Zeiss (Belgium) to allow direct visualization of the compound 13 itself thanks to its intrinsic fluorescent properties.
For TEM, cells were fixed with glutaraldehyde 2.5% (EM grade, Electron Microscopy Sciences, EMS) at 4 °C overnight, washed tree times in cacodylate buffer (pH 7.4) and postfixed 1 h at room temperature in 1% OsO4, (EMS), 1.5% potassium ferrocyanide (Sigma-Aldrich) in 0.15 M cacodylate buffer. This was immediately followed by a second incubation in 1% OsO4 for 1 h at room temperature. After washing in distilled water, samples were stained with 1% uranyl acetate (EMS) and serially dehydrated in increasing ethanol concentrations. Samples were then embedded in epoxy resin (Agar 100 resin, Agar Scientific Ltd) and left to polymerize for 2 days at 60 °C. Ultrathin sections (50–70 nm thick) were collected with a Leica UC6 ultra-microtome on formvar-carbon-coated copper grids and further stained with uranyl acetate and lead citrate by standard procedures. Observations were made on a Tecnai 10 transmission electron microscope (FEI) and images were captured with a Veleta camera and processed with SIS iTEM software (Olympus).

A549 = assay: MTT colorimetric assay, A549; assay type: cell-based; details: Homo sapiens, 72 h treatment, mean ± SEM of six replicates of one experiment (1: 7, 13: 6 independent experiments), resistant to apoptosis, read-out: IC50 determined by MTT assays, A549
Description: as §1, §2

U373 = assay: MTT colorimetric assay, U373; assay type: cell-based; details: Homo sapiens, U373 MG; 72 h treatment; mean ± SEM; resistant to apoptosis; read-out: IC50 determined by MTT assays, U373
Description: as §1, §2

Hs683 = assay: MTT colorimetric assay, Hs683; assay type: cell-based; details: Homo sapiens, Hs 683; 72 h treatment; mean ± SEM; sensitive to apoptosis; read-out: IC50 determined by MTT assays, Hs683
Description: as §1, §2

[2] = system: A549, SKMEL-28, U373, MCF7, Hs683, B16F10; assay: MTT colorimetric assay, mean of the six cell lines; assay type: cell-based; details: 72 h, mean over the six cell lines; 72 h treatment; read-out: IC50 determined by MTT assays, Mean
Description: as §1, §2

[3] = system: SKMEL-28 melanoma and U373 glioblastoma cells; assay: Morphological evaluation by phase contrast microscopy / videomicroscopy; assay type: cell-based, human; details: videomicroscopy in SKMEL-28 cells
Description: For the morphological evaluation of the effects induced by compounds 1 and 13, 6 × 10^4 cells were seeded on glass coverslips placed in 6 well plates a minimum 24 h before their treatment. At the end of the incubation period with the treatment, coverslips were rinsed once in PBS buffer and directly mounted on slides to allow visualization of the cell with an Axio.Imager.M2 microscope (G X40 and G X100).

A2780 = assay: MTT assay, A2780 (parental sensitive); assay type: cell-based; details: Homo sapiens, A2780; 72 h treatment; ± standard deviation; parental sensitive model; read-out: IC50 determined by MTT assays, A2780
Description: as §1, §2
(§3) SI Table 1: IC50 determined by MTT assays. Mean concentration (± standard deviation) in µM required to
(§4) reduce the viability of cells by 50% after a 72 h treatment relative to the control.
(§5) Parental sensitive models Drug-resistant models

Drug-resistant models = assay: MTT assay, mean of drug-resistant models; assay type: cell-based; details: 72 h treatment; read-out: IC50 determined by MTT assays, mean of drug-resistant models
Description: as §1, §2, §3, §4, §5

KB-3-1 = assay: MTT assay, KB-3-1 (parental sensitive); assay type: cell-based; details: Homo sapiens, KB 3-1; 72 h treatment; ± standard deviation; parental sensitive model; read-out: IC50 determined by MTT assays, KB-3-1
Description: as §1, §2, §3, §4, §5

Hct116 = assay: MTT assay, Hct116 (parental sensitive); assay type: cell-based; details: Homo sapiens, HCT-116; 72 h treatment; ± standard deviation; parental sensitive model; read-out: IC50 determined by MTT assays, Hct116
Description: as §1, §2, §3, §4, §5

human TopIIa = biological target: T1, human TopIIa (Homo sapiens, UniProt P11388); assay: Cell-free decatenation assay; assay type: biochemical; details: at 500 µM, read-out: TopoIIa inhibition
T1 construct: purchased TopoGen (Port Orange, FL, USA)
T1 sequence (P11388 whole entry): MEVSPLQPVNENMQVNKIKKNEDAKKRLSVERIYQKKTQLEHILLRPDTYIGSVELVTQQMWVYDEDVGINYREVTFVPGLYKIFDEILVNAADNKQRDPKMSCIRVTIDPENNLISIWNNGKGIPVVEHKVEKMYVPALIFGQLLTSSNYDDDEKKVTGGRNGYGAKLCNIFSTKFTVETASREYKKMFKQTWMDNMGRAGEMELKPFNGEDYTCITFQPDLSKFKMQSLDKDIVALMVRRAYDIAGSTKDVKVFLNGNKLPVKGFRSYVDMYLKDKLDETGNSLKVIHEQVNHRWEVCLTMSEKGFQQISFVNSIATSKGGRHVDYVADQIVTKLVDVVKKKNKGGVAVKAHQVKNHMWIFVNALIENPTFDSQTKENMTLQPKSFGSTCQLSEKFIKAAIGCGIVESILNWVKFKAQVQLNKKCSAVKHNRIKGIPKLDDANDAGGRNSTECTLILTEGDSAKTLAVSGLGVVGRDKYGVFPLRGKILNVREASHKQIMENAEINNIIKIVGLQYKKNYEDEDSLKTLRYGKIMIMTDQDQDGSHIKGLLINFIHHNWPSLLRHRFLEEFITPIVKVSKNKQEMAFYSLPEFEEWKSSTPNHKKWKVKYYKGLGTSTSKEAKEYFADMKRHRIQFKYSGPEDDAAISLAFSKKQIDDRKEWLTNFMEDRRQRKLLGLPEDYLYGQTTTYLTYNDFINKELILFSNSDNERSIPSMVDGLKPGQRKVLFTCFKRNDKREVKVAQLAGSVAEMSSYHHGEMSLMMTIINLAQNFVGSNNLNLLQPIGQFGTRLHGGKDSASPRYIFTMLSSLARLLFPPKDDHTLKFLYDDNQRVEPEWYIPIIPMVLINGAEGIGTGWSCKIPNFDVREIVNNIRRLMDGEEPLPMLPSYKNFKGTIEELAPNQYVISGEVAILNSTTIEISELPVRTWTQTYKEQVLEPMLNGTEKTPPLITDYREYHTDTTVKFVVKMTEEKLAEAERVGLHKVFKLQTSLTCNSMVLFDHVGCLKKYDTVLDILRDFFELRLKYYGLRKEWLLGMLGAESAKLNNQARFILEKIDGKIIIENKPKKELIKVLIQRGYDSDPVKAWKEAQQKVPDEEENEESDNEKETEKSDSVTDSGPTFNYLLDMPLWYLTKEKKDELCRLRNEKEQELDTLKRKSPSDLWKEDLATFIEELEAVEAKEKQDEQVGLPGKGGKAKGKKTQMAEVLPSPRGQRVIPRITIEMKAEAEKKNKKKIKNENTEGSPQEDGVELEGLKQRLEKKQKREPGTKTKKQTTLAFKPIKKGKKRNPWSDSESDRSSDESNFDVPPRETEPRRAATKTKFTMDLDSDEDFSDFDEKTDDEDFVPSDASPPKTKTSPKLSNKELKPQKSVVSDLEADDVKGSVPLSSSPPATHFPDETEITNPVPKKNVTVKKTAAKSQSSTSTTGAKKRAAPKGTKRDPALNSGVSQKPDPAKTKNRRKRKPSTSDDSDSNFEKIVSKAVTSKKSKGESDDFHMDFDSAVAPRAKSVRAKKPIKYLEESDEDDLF
Description: The topoisomerase (Top) activity assay kit, including kinetoplast DNA (kDNA and recombinant human TopIIa enzyme, was obtained from TopoGen (Port Orange, FL, USA), agarose from PeqLab (Erlangen, Germany), 50 × TAE buffer from Roth (Karlsruhe, Germany) and ethidium bromide solution (10 mg/mL) from Sigma-Aldrich (Taufkirchen, Germany). Decatenation assays were performed as described previously[62] with slight modifications according to the manufacturer’s protocol. 100 µM of the recently described dual topoisomerase poison P8-D6 served as a positive control, and 5% DMSO as a solvent control. Briefly, the compounds were dissolved in DMSO and diluted to 20× the concentration to be tested. 1 µL of the resulting stock solutions were mixed with 18 µL of a buffer containing 200 ng kDNA and 1 mM ATP. Subsequently, 1 µL of a 1u/µL dilution of TopIIa enzyme was added and incubated at 37 °C for 30 min. Afterwards, the reaction was stopped by addition of Stop buffer, and electrophoresis was carried out on a 1% agarose gel in TAE buffer. The gel was stained with 0.5 µg/mL ethidium bromide, washed with water, and fluorescence images were captured with the LAS4000 system (Fujifilm, Duesseldorf, Germany). All steps were carried out on ice.

RKO/P53wt = assay: MTT assay, RKO/P53wt (parental sensitive); assay type: cell-based; details: 72 h treatment; ± standard deviation; parental sensitive model; read-out: IC50 determined by MTT assays, RKO/P53wt
Description: as §1, §2, §3, §4, §5

[4] = system: Parental sensitive models; assay: MTT assay, mean of parental sensitive models; assay type: cell-based; details: 72 h treatment; read-out: IC50 determined by MTT assays, mean of parental sensitive models
Description: as §1, §2, §3, §4, §5

Hct116/OxR = assay: MTT assay, Hct116/OxR (oxaliplatin-resistant); assay type: cell-based; details: Homo sapiens, HCT-116; 72 h treatment; ± standard deviation; drug-resistant model; read-out: IC50 determined by MTT assays, Hct116/OxR
Description: as §1, §2, §3, §4, §5

RKO/p53ko = assay: MTT assay, RKO/p53ko; assay type: cell-based; details: 72 h treatment; ± standard deviation; drug-resistant model; read-out: IC50 determined by MTT assays, RKO/p53ko
Description: as §1, §2, §3, §4, §5

KB-C-1 = assay: MTT assay, KB-C-1 (ABCB1-overexpressing); assay type: cell-based; details: KBC-1; 72 h treatment; ± standard deviation; drug-resistant model; read-out: IC50 determined by MTT assays, KB-C-1
Description: as §1, §2, §3, §4, §5

A2780R = assay: MTT assay, A2780R (cisplatin-resistant); assay type: cell-based; details: 72 h treatment; ± standard deviation; drug-resistant model; read-out: IC50 determined by MTT assays, A2780R
Description: as §1, §2, §3, §4, §5

CC1(C=CCCOc2cccc3ccccc23)C=C2C(=O)C3(O)OC(=O)C4(CCCC(C)(C)C34)C2(O)CC1 (stereo not drawn) [Compound 26]
IC50 (B16F10): 1.08 ± 0.14 µM
IC50 (SKMEL-28): 2.46 ± 0.08 µM
IC50 (MCF7): 1.3 ± 0.11 µM
ER swelling / ER-derived vacuolization [1]: induction of ER-derived vacuolization
IC50 (A549): 2.05 ± 0.2 µM
IC50 (U373): 2.84 ± 0.12 µM
IC50 (Hs683): 3.1 ± 0.23 µM
IC50 [2]: 2.14 ± 0.33 µM

C#CCCCC(=O)OC12OC(=O)C3(CCCC(C)(C)C13)C1(O)CCC(C)(C=C)C=C1C2=O (stereo not drawn) [Compound 3]
IC50 (B16F10): 2.6 ± 0.07 µM
IC50 (SKMEL-28): 2.56 ± 0.09 µM
delay in the cellular shrinkage versus SphA 1 [3]: ≥ 24 h
IC50 (MCF7): 3.72 ± 0.27 µM
IC50 (A549): 2.4 ± 0.1 µM
IC50 (U373): 2.37 ± 0.09 µM
IC50 (Hs683): 2.83 ± 0.13 µM
IC50 [2]: 2.75 ± 0.21 µM

CC1(C=CCOCc2ccc3ccc4cccc5ccc2c3c45)C=C2C(=O)C3(O)OC(=O)C4(CCCC(C)(C)C34)C2(O)CC1 (stereo not drawn) [Compound 25]
IC50 (B16F10): 3.28 ± 0.3 µM
IC50 (SKMEL-28): 3.32 ± 0.3 µM
IC50 (MCF7): 2.71 ± 0.14 µM
ER swelling / ER-derived vacuolization [1]: induction of ER-derived vacuolization
IC50 (A549): 3.47 ± 3.28 µM
IC50 (U373): 3.93 ± 0.1 µM
IC50 (Hs683): 3.32 ± 0.23 µM
IC50 [2]: 3.34 ± 0.16 µM

C=C[C@]1(C)C=C2[C@@H](O)[C@@]3(O)OC(=O)[C@@]4(CCCC(C)(C)[C@H]34)[C@@]2(O)CC1 [Compound 15, sphaeropsidin B, reference compound]
IC50 (B16F10): 41.7 ± 1.49 µM
IC50 (A2780): > 100 µM
IC50 (Drug-resistant models): > 100 µM
IC50 (KB-3-1): > 100 µM
IC50 (Hct116): > 100 µM
inhibition at 500 µM (human TopIIa): ~50%
IC50 (SKMEL-28): 59.3 ± 4.51 µM
IC50 (MCF7): 84.5 ± 8.29 µM
IC50 (A549): 44.8 ± 0.54 µM
IC50 (RKO/P53wt): > 100 µM
IC50 [4]: > 100 µM
IC50 (Hct116/OxR): > 100 µM
IC50 (U373): 37.8 ± 1.5 µM
IC50 (RKO/p53ko): > 100 µM
IC50 (Hs683): 43.1 ± 1.07 µM
IC50 (KB-C-1): > 100 µM
IC50 (A2780R): > 100 µM
IC50 [2]: 51.9 ± 7.19 µM
